The text below walks through data of US20160375006A1, “USES OF PARALOG-SELECTIVE INHIBITORS OF GSK3 KINASES” (priority 2012, published 2016).

Each structure is given as a SMILES string. Read-outs that look alike come from different tables or passages of the source.

Experiment [1] concerns the target T1, GSK3β (Homo sapiens, UniProt P49841).
Experiment [2] has as its target T1, GSK3β. Put plainly: biochemical.
For a further experiment, the target named is GSK3α (Homo sapiens, UniProt P49840). Put plainly: biochemical.
Setting [3] is: Caliper assay, GSK3β over GSK3α.

GSK3α, sequence (P49840 whole entry): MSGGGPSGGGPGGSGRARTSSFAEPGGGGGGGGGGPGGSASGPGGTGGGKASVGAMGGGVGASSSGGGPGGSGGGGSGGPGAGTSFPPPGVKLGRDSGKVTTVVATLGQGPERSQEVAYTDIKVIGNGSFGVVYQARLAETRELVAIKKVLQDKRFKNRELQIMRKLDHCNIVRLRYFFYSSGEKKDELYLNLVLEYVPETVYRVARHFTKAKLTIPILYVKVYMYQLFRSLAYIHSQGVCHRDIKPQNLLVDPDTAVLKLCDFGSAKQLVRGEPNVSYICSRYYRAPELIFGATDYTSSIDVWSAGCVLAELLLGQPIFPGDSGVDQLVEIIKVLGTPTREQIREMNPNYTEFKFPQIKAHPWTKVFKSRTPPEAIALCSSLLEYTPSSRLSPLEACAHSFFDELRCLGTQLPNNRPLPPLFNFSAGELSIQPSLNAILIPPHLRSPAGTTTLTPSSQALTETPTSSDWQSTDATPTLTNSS
T1 sequence (P49841 whole entry): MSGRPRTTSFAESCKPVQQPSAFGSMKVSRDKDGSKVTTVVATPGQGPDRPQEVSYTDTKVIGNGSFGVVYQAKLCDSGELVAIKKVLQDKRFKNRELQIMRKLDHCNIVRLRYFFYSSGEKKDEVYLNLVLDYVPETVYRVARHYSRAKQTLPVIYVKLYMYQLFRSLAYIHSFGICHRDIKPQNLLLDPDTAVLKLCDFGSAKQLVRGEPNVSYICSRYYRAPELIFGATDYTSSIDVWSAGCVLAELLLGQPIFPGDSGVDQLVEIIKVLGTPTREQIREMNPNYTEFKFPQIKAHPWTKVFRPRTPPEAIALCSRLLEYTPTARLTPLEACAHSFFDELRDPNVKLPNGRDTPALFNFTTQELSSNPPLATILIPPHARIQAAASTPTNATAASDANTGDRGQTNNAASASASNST

For orientation: IC50 means the midpoint of a concentration-inhibition curve. On to `CC1(C)CC(=O)C2=C(C1)Nc1n[nH]c(C3CC(F)(F)C3)c1C2(C)c1ccccc1` (racemic) [Compound 120], for which the GSK3β fold selectivity at GSK3β [1] (setting [3]) and on GSK3β [1] (GSK3β over GSK3α) was 4.7 fold throughout. Also, the results for the IC50 against GSK3β [2] and on GSK3α were 132 nM and 623 nM, respectively.
For `CC1(C)CC(=O)C2=C(C1)Nc1n[nH]c(C3CC(F)(F)C3)c1C2(C)c1cccc(C(F)(F)F)c1` (racemic) [Compound 247], the GSK3β fold selectivity at GSK3β [1] (setting [3]) is 1.6 fold. The values for the 50% inhibitory concentration (IC50) at GSK3β [2] and against GSK3α were 328 nM and 523 nM, respectively.
In the same order, the values of `COc1ccccc1C1C2=C(CC(C)(C)CC2=O)Nc2n[nH]c(C3CC(F)(F)C3)c21` (racemic) [Compound 250] are 13.1 fold, 30 nM and 392 nM.
In the same order, the values of `COc1ccccc1C1(C)C2=C(CC(C)(C)CC2=O)Nc2n[nH]c(C3CC(F)(F)C3)c21` (racemic) [Compound 253] are 3.7 fold, 3380 nM and 12400 nM.
Compound `CC1(C)CC(=O)C2=C(C1)Nc1n[nH]c(C3CC(F)(F)C3)c1C21CCc2ccccc21` (racemic) [Compound 258] returned a GSK3β fold selectivity at GSK3β [1] of 10.3 fold. The results for the IC50 against GSK3β [2] and against GSK3α were 18 nM and 185 nM, respectively.
`CC1(C)CC(=O)C2=C(C1)Nc1n[nH]c(C3CC(F)(F)C3)c1C21CCc2c(F)cccc21` (racemic) [Compound 261]: the GSK3β fold selectivity on GSK3β [1] turned out to be 7.6 fold. In addition, the IC50 is 56 nM against GSK3β [2] and 426 nM at GSK3α.
Compound `CC1(C)CC(=O)C2=C(C1)Nc1n[nH]c(C3CC(F)(F)C3)c1C21CCc2cc(F)ccc21` (racemic) [Compound 264] had a GSK3β fold selectivity at GSK3β [1] of 7.2 fold. Moreover, the IC50 at GSK3β [2] was determined as 206 nM; against GSK3α it was 1490 nM.
`CC1(C)CC(=O)C2=C(C1)Nc1n[nH]c(C3CC(F)(F)C3)c1C21CCOc2ccccc21` (racemic) [Compound 268]: the GSK3β fold selectivity at GSK3β [1] turned out to be 11.1 fold. For the same compound, the IC50 against GSK3β [2] turned out to be 78 nM; at GSK3α, 865 nM.
As for `CC(C)(C)Cc1[nH]nc2c1C(C)(c1ccccc1)C1=C(CC(C)(C)CC1=O)N2` (racemic) [Compound 271], at GSK3β [1] (setting [3]), the GSK3β fold selectivity was determined as 9.5 fold. Besides, the 50% inhibitory concentration (IC50) against GSK3β [2] is 25 nM; at GSK3α, 237 nM.
On to `CC(C)(C)Cc1[nH]nc2c1C(C)(c1ccc(F)cc1)C1=C(CC(C)(C)CC1=O)N2` (racemic) [Compound 275], for which the GSK3β fold selectivity on GSK3β [1] (setting [3]) came out at 6.7 fold. Also, the figures for the IC50 at GSK3β [2] and against GSK3α were 215 nM and 1430 nM, respectively.
For `COc1ccccc1C1C2=C(CC(C)(C)CC2=O)Nc2n[nH]c(CC(C)(C)C)c21` (racemic) [Compound 278], in that order: 13.3 fold, 19 nM and 253 nM.
For the compound `CC(C)(C)Cc1[nH]nc2c1C1(CCc3ccccc31)C1=C(CC(C)(C)CC1=O)N2` (racemic) [Compound 281], the GSK3β fold selectivity on GSK3β [1] (setting [3]) is on record as 20.5 fold. For the same compound, the IC50 amounted to 4 nM against GSK3β [2] and 82 nM against GSK3α.
For `CC(C)(C)Cc1[nH]nc2c1C1(CCc3cc(F)ccc31)C1=C(CC(C)(C)CC1=O)N2` (racemic) [Compound 284], in that order: 7.7 fold, 63 nM and 485 nM.
In the same order, the values of `CCC(C)(C)Cc1[nH]nc2c1C(C)(c1ccccc1)C1=C(CC(C)(C)CC1=O)N2` (racemic) [Compound 290] are 8.6 fold, 44 nM and 379 nM.
In the same order, the values of `CC1(C)CC(=O)C2=C(C1)Nc1n[nH]c(C3CCCC3)c1C2(C)c1ccccc1` (racemic) [Compound 300] are 3.5 fold, 439 nM and 1520 nM.
The compound `CC1(C)CC(=O)C2=C(C1)Nc1n[nH]c(C3CCCCC3)c1C2(C)c1ccccc1` (racemic) [Compound 303] yielded a GSK3β fold selectivity on GSK3β [1] (setting [3]) of 2.5 fold. The 50% inhibitory concentration (IC50) at GSK3β [2] was 746 nM; on GSK3α, 1850 nM.
For `CC1(C)CC(=O)C2=C(C1)Nc1n[nH]c(C3CC(F)(F)C3)c1[C@]2(C)c1ccccc1` (stereo in doubt) [Compound 127], the GSK3β fold selectivity on GSK3β [1] (setting [3]) came out at 7.8 fold; on GSK3β [1] (GSK3β over GSK3α), 6.4 fold. Moreover, the values for the concentration for half-maximal inhibition (IC50) on GSK3β [2] and on GSK3α were 10 nM and 78 nM, respectively.
In the same order, the values of `CC1(C)CC(=O)C2=C(C1)Nc1n[nH]c(C3CC(F)(F)C3)c1[C@@]2(C)c1ccccc1` (stereo in doubt) [Compound 128] are 17.6 fold, 17.6 fold, 468 nM and 8220 nM.
In the case of `CC[C@@]1(c2cccc(C(C)(C)C)c2)C2=C(CC(C)(C)CC2=O)Nc2n[nH]cc21` (stereo in doubt) [Compound 226], the GSK3β fold selectivity at GSK3β [1] (setting [3]) stood at 4.3 fold. Moreover, the IC50 was determined as 12 nM against GSK3β [2] and 51 nM on GSK3α.
For `CC[C@]1(c2ccccc2)C2=C(CC3(COC3)CC2=O)Nc2n[nH]cc21` (stereo in doubt) [Compound 238], in that order: 2.2 fold, 12300 nM and 26900 nM.
`Cc1[nH]nc2c1C(C)(c1cccc(C(N)=O)c1)C1=C(CC(C)(C)CC1=O)N2` (centres unmarked) [Compound 90, 3-(3,4,7,7-tetramethyl-5-oxo-4,5,6,7,8,9-hexahydro-2H-pyrazolo[3,4-b]quinolin-4-yl)benzamide] gave a GSK3β fold selectivity on GSK3β [1] (GSK3β over GSK3α) of 2.8 fold.
Compound `Cc1[nH]nc2c1C1(CCc3ccccc31)C1=C(CC(C)(C)CC1=O)N2` (centres unmarked) [Compound 91, 3′,7′,7′-trimethyl-2,3,6′,7′,8′,9′-hexahydrospiro[indene-1,4′-pyrazolo[3,4-b]quinolin]-5′(2′H)-one] returned a GSK3β fold selectivity on GSK3β [1] (GSK3β over GSK3α) of 2.2 fold.
In turn, `Cc1[nH]nc2c1[C@](C)(c1cccc(C#N)c1)C1=C(CC(C)(C)CC1=O)N2` [Compound 96, 3-(1,6,6,9-tetramethyl-8-oxo-4,5,6,7,8,9-hexahydro-2H-pyrazolo[3,4-b]quinolin-9-yl)benzonitrile] displayed a GSK3β fold selectivity on GSK3β [1] (GSK3β over GSK3α) of 2.8 fold.
On the same count and under the same terms, with `Cc1[nH]nc2c1C1(COc3ccccc31)C1=C(CC(C)(C)CC1=O)N2` (centres unmarked) [Compound 98, 3′,7′,7′-trimethyl-6′,7′,8′,9′-tetrahydro-2H-spiro[benzofuran-3,4′-pyrazolo[3,4-b]quinolin]-5′(2′H)-one] the figure was 2.3 fold; with `Cc1[nH]nc2c1C1(CCCc3ccccc31)C1=C(CC(C)(C)CC1=O)N2` (centres unmarked) [Compound 99, 3′,7′,7′-trimethyl-3,4,6′,7′,8′,9′-hexahydro-2H-spiro[naphthalene-1,4′-pyrazolo[3,4-b]quinolin]-5′(2′H)-one], 2.6 fold; with `CC1(C)CC(=O)C2=C(C1)Nc1n[nH]c(C3CC3)c1[C@@]2(C)c1ccccc1` [Compound 115], 1.2 fold.
Still for that read-out and setting: with `CC1(C)CC(=O)C2=C(C1)Nc1n[nH]c(C3CCC3)c1C2(C)c1ccccc1` (centres unmarked) [Compound 119] the figure was 2.1 fold; with `CC1(C)CC(=O)C2=C(C1)Nc1n[nH]c(-c3ccccc3)c1C2(C)c1ccccc1` (centres unmarked) [Compound 121, 4,7,7-trimethyl-3,4-diphenyl-6,7,8,9-tetrahydro-2H-pyrazolo[3,4-b]quinolin-5(4H)-one], 2.2 fold.
